Laboratory results published in patent US11065294B2, “Composition including oriental medicine to treat neoplastic disease” (COMPREHENSIVE AND INTEGRATIVE MEDICINE INSTITUTE, priority 2013, dated 2021).
Several values for one entry are separate records, joined by “and”; a condition that tells them apart may be missing. Equal values may be shown once. Where a name gives a salt, the structure may show the parent alone. Marks after values point to notes of the source that are not given here.

How the values were obtained:
[1] = test system: NCI-H520 cell xenograft; experiment: NCI-H520 xenograft nude mice, 35 days oral: gefitinib 120 mg/kg single, bojungikgi-tang 400 mg/kg single, or co-administered within 5 minutes; format: in vivo, Balb/c Slc nu/nu mice; details: co-adm BJIKT 100/200/400 mg/kg in order
Description: A total of 73 nude mice were purchased, and NCI-H520 cells were xenografted into a subcutaneous region of a right hip each of 67 mice. 14 days after the grafting, the xenografted mice having a tumor volume of 100 mm^3 or more were selected, and divided into seven groups of 6 mice each to be used in the experiment as listed in Table 16. Separately, 6 mice were prepared as the vehicle control.
Then, the NCI-H520 cells were cultured to a density of 1.0×10^8 cells/ml to prepare a tumor cell suspension, and 0.2 mL (2×10^7 cells/head) of the NCI-H520 tumor cell suspension was injected into subcutaneous regions of right back buttocks of the mice to form a solid tumor mass.

[2] = in vivo; details: male, SD, rat, plasma, po, 50 mg/kg; for AUC(0-inf): AUC0-inf of gefitinib; for AUC(0-t): AUC0-t of gefitinib; for Cmax: Cmax of gefitinib; for MRT inf: MRTinf of gefitinib; for half-life: t1/2 of gefitinib
[3] = in vivo; details: male, SD, rat, plasma, po, 50 mg/kg
[4] = mouse, in vivo
[5] = test system: HepG2 cells; experiment: HepG2 cell viability, MTT method (BJIKT, sorafenib); format: cell-based; details: Homo sapiens
[6] = sorafenib 100 mg/kg single
[7] = test system: HepG2 cells; experiment: HepG2 cell viability, MTT method (YMJHT, sorafenib); format: cell-based; details: Homo sapiens
[8] = in vivo; details: male, SD, rat, plasma; for Cmax / MRT inf / Tmax / half-life: oral; for Cmax: Blood Cmax of tamoxifen; for MRT inf: Blood MRTinf of tamoxifen; for Tmax: Blood Tmax of tamoxifen; for half-life: Blood t1/2 of tamoxifen; for AUC(0-inf) / AUC(0-t): po, 50 mg/kg; for AUC(0-inf): Blood tamoxifen AUC0-inf; for AUC(0-t): Blood tamoxifen AUC0-t
[9] = test system: MCF-7 cell xenograft; experiment: MCF-7 xenograft nude mice, 35 days oral: tamoxifen 20 mg/kg single, JEKHT 500 mg/kg single, or co-administered within 5 minutes; tumor, immune and cachexia readouts; format: in vivo, Balb/c Slc nu/nu mice
Excerpt: In Example 3, as laboratory animals, Balb/c Slc nu/nu mice (5-week-old females, SLC, Shizuoka, Japan) were used. Seventy three nude mice were purchased, and sixty seven xenografted mice having a tumor volume of 50 mm^3 or more 14 days after MCF-7 cells were xenografted into subcutaneous parts of a right hip of each mouse were selected, and divided into groups of seven mice each.
The xenografted MCF-7 cells were maintained by sub-culturing the MCF-7 cells (American Type Culture Collection Center, VA, USA) using 10% fetal bovine serum (FBS)-added RPMI 1640 (Gibco, Grand Island, N.Y., USA) media in a 5% C02 incubator at 37° C., and a solid tumor mass was formed by preparing a tumor cell suspension to have a cell concentration of 1.0×10^8 cell/ml, and grafting 0.2 ml (2×10^7 cell/mouse) of the MCF-7 tumor cell suspension on a subcutaneous part of a right hip of each mouse.

[10] = in vivo; details: male, SD, rat, plasma
[11] = co-adm JEKHT 125/250/500 mg/kg in order
[12] = co-adm JEKHT dose given in table
[13] = submandibular lymph node, JEKHT dose = table row
[14] = tumor mass, JEKHT dose = table row

COc1cc2ncnc(Nc3ccc(F)c(Cl)c3)c2cc1OCCCN1CCOCC1 [Gefitinib]
Absolute periovarian fat pad weight, change vs TB control [1]: −3.06% | Absolute spleen weight, change vs TB control [1]: 14.01% | Absolute submandibular lymph node weight, change vs TB control [1]: 50.00% | Absolute tumor weight change [1]: −39.14% | Blood IFN-γ content, change vs TB control [1]: 6.77% | Blood IL-6 content, change vs TB control [1]: −12.33% | Body weight gain, change vs tumor-bearing control [1]: 68.23% | COX-2 immunoreactive cells in tumor tissue, change vs TB control [1]: −42.48% | Caspase-3 immunoreactive cells in tumor tissue, change vs TB control [1]: 168.67% | Diameter of splenic white pulp, change vs TB control [1]: 6.51% | Follicles in submandibular lymph node cortex, change vs TB control [1]: 15.00% | Mean white adipocyte diameter, change vs TB control [1]: −7.01% | Number of splenic white pulps, change vs TB control [1]: 22.22% | PARP immunoreactive cells in tumor tissue, change vs TB control [1]: 125.47% | Percentage of apoptotic cells in tumor tissue, change vs TB control [1]: 131.78% | Percentage of tumor cells in tumor tissue, change vs TB control [1]: −36.78% | Periovarian fat pad thickness, change vs TB control [1]: 2.11% | Spleen IL-1β content, change vs TB control [1]: 8.36% | Spleen IL-10 content, change vs TB control [1]: 5.16% | Spleen TNF-α content, change vs TB control [1]: 6.73% | Splenic NK cell activity, change vs TB control [1]: 4.93% | Submandibular lymph node cortex thickness, change vs TB control [1]: 16.19% | TNF-α immunoreactive cells in tumor tissue, change vs TB control [1]: 12.63% | Total spleen thickness, change vs TB control [1]: −6.99% | Total submandibular lymph node thickness, change vs TB control [1]: 7.42% | Tumor volume variation, change vs tumor-bearing control [1]: −55.42% | iNOS immunoreactive cells in tumor tissue, change vs TB control [1]: 9.02% | AUC(0-inf) ([2]; 9th administration): 16900 ± 4140 ng·h/mL | AUC(0-inf) ([2]; first gefitinib administration): 20200 ± 4610 ng·h/mL | AUC(0-t) ([2]; 9th administration): 13500 ± 2780 ng·h/mL | AUC(0-t) ([2]; first gefitinib administration): 15400 ± 2240 ng·h/mL | Cmax ([2]; 9th administration): 3120 ± 770 ng/mL | Cmax ([2]; first gefitinib administration): 3010 ± 480 ng/mL | MRT inf ([2]; 9th administration): 5.71 ± 1.04 h | MRT inf ([2]; first gefitinib administration): 5.94 ± 1.36 h | half-life ([2]; 9th administration): 2.38 ± 0.88 h | half-life ([2]; first gefitinib administration): 2.82 ± 0.92 h | AUC(0-inf) [3]: 16400 ± 9310 ng·h/mL | AUC(0-t) [3]: 14600 ± 9450 ng·h/mL | Cmax [3]: 2160 ± 760 ng/mL | half-life [3]: 2.59 ± 0.76 h

CNC(=O)c1cc(Oc2ccc(NC(=O)Nc3ccc(Cl)c(C(F)(F)F)c3)cc2)ccn1 [Sorafenib, sorafenib]
Any abnormal signs ([4]; male, ICR, 28 days): 0/7 (0%) | Normal appearance ([4]; male, ICR, 28 days): 7/7 (100%) | Adrenal G L absolute weight [4]: 0.003 ± 0.002 | BASO (%) [4]: 0.30 ± 0.20% | Body weight gain, Day 0~Day 14 [4]: 6.63 ± 1.62 | Body weight gain, Day 14~Day 27 [4]: 2.11 ± 1.51 | Brain absolute weight [4]: 0.471 ± 0.022 | Epididymis L absolute weight [4]: 0.036 ± 0.004^a | HCT [4]: 41.89 ± 2.13% | HGB [4]: 18.54 ± 0.88 g/dL | Heart absolute weight [4]: 0.155 ± 0.011 | Kidney L absolute weight [4]: 0.285 ± 0.042 | LN L absolute weight [4]: 0.002 ± 0.001^a | LYM (%) [4]: 70.74 ± 6.08^c % | Liver absolute weight [4]: 1.234 ± 0.149 | Lung absolute weight [4]: 0.172 ±0 .010 | MCH [4]: 20.89 ± 0.88 pg | MCV [4]: 47.13 ± 2.47 fL | MONO (%) [4]: 5.26 ± 1.55% | NEU (%) [4]: 17.36 ± 5.16^c % | PLT [4]: 804.86 ± 99.24 K/μL | Pancreas S absolute weight [4]: 0.156 ± 0.022 | RBC [4]: 8.89 ± 0.39 M/μL | RET [4]: 0.51 ± 0.33 ea/1000 | Spleen absolute weight [4]: 0.063 ± 0.007^e | Testis L absolute weight [4]: 0.097 ± 0.006^a | Thymus absolute weight [4]: 0.027 ± 0.004^a | WBC [4]: 1.81 ± 0.53^a K/μL | IC50 [5]: 2.8 µM and 1.3 µg/mL | Deaths, Days of treatment period (Day 0 to 27) [6]: 0 | Deaths, Termination date (28th day of administration) [6]: 0 | IC50 [7]: 2.81 µM and 1.31 µg/mL

CC/C(=C(\c1ccccc1)c1ccc(OCCN(C)C)cc1)c1ccccc1 [Tamoxifen, Tamoxifen citrate]
Cmax ([8]; 8th administration): 770 ± 220 ng/mL | Cmax ([8]; first tamoxifen administration): 280 ± 160 ng/mL | MRT inf ([8]; 8th administration): 28.5 ± 8.53 h | MRT inf ([8]; first tamoxifen administration): 18.1 ± 5.71 h | Tmax ([8]; 8th administration): 3.4 ± 0.89 h | Tmax ([8]; first tamoxifen administration): 3.6 h | half-life ([8]; 8th administration): 19.6 ± 5.84 h | half-life ([8]; first tamoxifen administration): 13.1 ± 5.77 h | AUC(0-inf) ([8]; 8th administration): 21500 ± 3040 ng·h/mL | AUC(0-inf) ([8]; first tamoxifen administration): 4860 ± 2870 ng·h/mL | AUC(0-t) ([8]; 8th administration): 12400 ± 2660 ng·h/mL | AUC(0-t) ([8]; first tamoxifen administration): 3230 ± 1790 ng·h/mL | Periovarian fat pad total thickness ([9]; JEKHT dose = table row): 0.28 ± 0.10^a mm/central regions | Spleen total thickness ([9]; JEKHT dose = table row): 1.15 ± 0.13^a mm/central regions | Spleen white pulp diameters ([9]; JEKHT dose = table row): 298.11 ± 61.88^a μm/white pulp | Spleen white pulp numbers ([9]; JEKHT dose = table row): 4.14 ± 1.07^a /mm^2 | Submandibular lymph node total thickness ([9]; JEKHT dose = table row): 487.38 ± 83.96^a μm/central regions | Blood IFN-γ content, change vs tumor-bearing control [9, 11]: −14.77% | Blood IL-6 content, change vs tumor-bearing control [9, 11]: 21.68% | Body weight gain, change vs tumor-bearing control [9, 11]: −11162.72% | Peritoneal NK cell activity, change vs tumor-bearing control [9, 11]: −26.39% | Splenic IL-1β content, change vs tumor-bearing control [9, 11]: −10.82% | Splenic IL-10 content, change vs tumor-bearing control [9, 11]: −33.33% | Splenic NK cell activity, change vs tumor-bearing control [9, 11]: −12.73% | Splenic TNF-α content, change vs tumor-bearing control [9, 11]: −23.94% | Tumor volume variation, change vs tumor-bearing control [9, 11]: −66.73% | Periovarian fat pad absolute weight [9, 12]: 0.009 ± 0.003 g | Spleen absolute weight [9, 12]: 0.049 ± 0.009 g | Submandibular lymph node absolute weight [9, 12]: 0.002 ± 0.001 g | Tumor mass absolute weight [9, 12]: 0.047 ± 0.010 g | Tumor volume Changes [B − A] [9, 12]: 125.92 ± 40.49^a mm^3 | Tumor volume, Sacrifice [B] [9, 12]: 184.85 ± 37.69^a mm^3 | White adipocyte diameters ([9]; periovarian fat pad, JEKHT dose = table row): 19.89 ± 5.09^a μm | Cortex lymphoid cell follicle numbers [9, 13]: 4.14 ± 1.68^gj /mm^2 | Cortex thickness [9, 13]: 255.43 ± 46.37^a μm/lymph node | TNF-positive cells [9, 13]: 6.57 ± 2.51^gj cells/mm^2 of lymph node | Apoptotic cell percentages [9, 14]: 27.50 ± 6.62% | Tumor cell volume [9, 14]: 51.00 ± 10.37 %/mm^2 | AUC(0-inf) ([10]; oral): 6860 ± 2920 ng·h/mL | AUC(0-t) ([10]; oral): 5270 ± 1790 ng·h/mL | Cmax ([10]; oral): 364 ± 122 ng/mL | MRT inf ([10]; oral): 14.9 ± 6.29 h | Tmax ([10]; oral): 5.6 ± 2.19 h | half-life ([10]; po, 50 mg/kg): 9.56 ± 4.16 h
